Laboratory results reported in patent US20260085101A1, “NOVEL PLATELET DERIVED GROWTH FACTOR PEPTIDE MIMETIC” (THE UNIVERSITY OF SYDNEY, priority 2022, published 2026).

Experiments:
Assay type in all cases: cell-based
[1] = test system: C3H10T½ mouse embryonic fibroblasts; assay: EdU proliferation assay (flow cytometry); conditions: C3H10T½ cells; 10 μM AG1296 with 20 ng/ml PDGF−BB
Experimental: FIG. 8. Proliferation of C3H10T½ Cells Following Treatment with PDGF and Novel PDGF Mimetic Peptides. Cultured C3H10T½ mouse embryonic fibroblast cells were treated with 20 ng/ml recombinant PDGF−AB or PDGF−BB protein ligands, and 2 μg/ml of novel PDGF mimetics JC5 or JC5a for 24 hr, in the presence of 1% fetal bovine serum (FBS). Percent proliferating cell was determined after a 2 hr pulse with nucleotide analogue EdU at the end of the incubation period. […] Co-treatment of protein/peptides with 10 μM of PDGF receptor antagonist, AG1296, confirmed that PDGF-BB-stimulated proliferation occurred via the PDGF ligand/receptor pathway. […] Error bars represent ±SD, n=3. Statistical analysis was using One-Way Anova: * p<0.05; ** p<0.01; *** p<0.001; **** p<0.0001. The mitotic effects of PDGF mimetic peptides JC5 and JC5a were tested using cultured C3H10T½ mouse embryonic fibroblasts. Proliferation was assayed after a pulse of nucleotide analogue 5-ethynyl-2′-deoxyuridine (EdU) and fluorescent detection using flow cytometry. Cells were treated with 20 ng/ml PDGF−BB or PDGF−AB, and 2 μg/ml of peptides JC5 or JC5a, in the presence of 1% fetal bovine serum (FBS) and DMEM for 24 hr. 10% FBS was used as a positive control, and co-treatments with specific PDGF receptor antagonist, AG1296, was used to ascertain whether proliferation occurred via the PDGF ligand/receptor pathway. Assays were performed in biological triplicate.

C2C12 mouse myoblasts [2] = assay: Collagen gel contraction assay with C2C12 cells
Excerpt: FIG. 3. Collagen Contraction of C2C12 Mouse Fibroblasts Treated with PDGF and peptides JC5 and JC5a. […] Error bars represent ±SD, n=8/4. The function of Compounds Ia (also referred to herein as JC5) and Ib (also referred to herein as JC5a) has been tested in vitro on the continuous cell line, C2C12 mouse myoblasts. In these in vitro assays recombinant PDGF−AB and −BB have been used as positive controls along with a serum starved no treatment control and the PDGF receptor inhibitor AG1296 co-treated with PDGF−AB as a negative control. The in vitro assays were designed to assess the major known functions of PDGF whilst also considering functions that are relevant to its in vivo applications. These functions were chemotaxis, collagen contraction, vascular tube formation and activation of the PDGF receptors via phosphorylation of Akt and Erk. Collagen contraction is an important function during wound healing of many tissues including the heart. This can be simulated in vitro using a collagen gel contraction assay. This was assessed using C2C12 cells treated with the positive controls 10 ng/ml recombinant PDGF-BB and PDGF−AB, negative control 10 μM AG1296 co-treated with 10 ng/ml recombinant PDGF−AB, a serum starved no treatment control and 1 μg/ml of the peptides JC5 and JC5a. C2C12 mouse myoblasts were seeded in a 3D collagen gel crosslinked with NaOH and incubated at 37° C. for 24 hours following treatment with the four controls and peptides JC5 and JC5a.

C2C12 mouse myoblasts [3] = assay: Scratch migration (chemotaxis) assay on C2C12 cells
Experimental: FIG. 2. Migration of C2C12 Mouse […] Cells Treated with PDGF and peptides JC5 and JC5a. C2C12 mouse fibroblast cells migrate across the scratch over 24 hours. Cells were treated with 10 ng/ml PDGF−AB (n=6), PDGF−BB (n=6), and 1 μg/ml of novel PDGF mimetic JC5 (n=6) and JC5a (n=3). […] There was also no statistically significant difference between the PDGF mimetic peptides and PDGF−AB and −BB positive controls. Error bars represent ±SD. The function of Compounds Ia (also referred to herein as JC5) and Ib (also referred to herein as JC5a) has been tested in vitro on the continuous cell line, C2C12 mouse myoblasts. In these in vitro assays recombinant PDGF−AB and −BB have been used as positive controls along with a serum starved no treatment control and the PDGF receptor inhibitor AG1296 co-treated with PDGF−AB as a negative control. The in vitro assays were designed to assess the major known functions of PDGF whilst also considering functions that are relevant to its in vivo applications. These functions were chemotaxis, collagen contraction, vascular tube formation and activation of the PDGF receptors via phosphorylation of Akt and Erk. Chemotaxis was assessed by making a scratch through a 2D culture of C2C12 cells following treatment with the four controls and the peptides JC5 and JC5a. They were then incubated for 24 hours at 37° C. Migration of the cells across the scratch at the conclusion of the incubation was measured and compared to the relevant controls described above. PDGF is a well-established mediator of chemotaxis and is expected to increase migration of the cells across the scratch over the course of 24 hours post treatment.

PDGF receptor = biological target: T1, PDGF receptor (Mus musculus, UniProt P05622); assay: Western blot for phosphorylation of ERK in C2C12 cells (PDGF receptor activation); conditions: 10 ng/ml PDGF, 1 μg/ml peptide, vs no treatment and AG1296+PDGF−AB controls
T1 construct: Phosphorylation of ERK following treatment of C2C12 Cells with PDGF and JC5; endogenous in cells; host or cells: C2C12 mouse myoblasts
T1 sequence (P05622 32-1098): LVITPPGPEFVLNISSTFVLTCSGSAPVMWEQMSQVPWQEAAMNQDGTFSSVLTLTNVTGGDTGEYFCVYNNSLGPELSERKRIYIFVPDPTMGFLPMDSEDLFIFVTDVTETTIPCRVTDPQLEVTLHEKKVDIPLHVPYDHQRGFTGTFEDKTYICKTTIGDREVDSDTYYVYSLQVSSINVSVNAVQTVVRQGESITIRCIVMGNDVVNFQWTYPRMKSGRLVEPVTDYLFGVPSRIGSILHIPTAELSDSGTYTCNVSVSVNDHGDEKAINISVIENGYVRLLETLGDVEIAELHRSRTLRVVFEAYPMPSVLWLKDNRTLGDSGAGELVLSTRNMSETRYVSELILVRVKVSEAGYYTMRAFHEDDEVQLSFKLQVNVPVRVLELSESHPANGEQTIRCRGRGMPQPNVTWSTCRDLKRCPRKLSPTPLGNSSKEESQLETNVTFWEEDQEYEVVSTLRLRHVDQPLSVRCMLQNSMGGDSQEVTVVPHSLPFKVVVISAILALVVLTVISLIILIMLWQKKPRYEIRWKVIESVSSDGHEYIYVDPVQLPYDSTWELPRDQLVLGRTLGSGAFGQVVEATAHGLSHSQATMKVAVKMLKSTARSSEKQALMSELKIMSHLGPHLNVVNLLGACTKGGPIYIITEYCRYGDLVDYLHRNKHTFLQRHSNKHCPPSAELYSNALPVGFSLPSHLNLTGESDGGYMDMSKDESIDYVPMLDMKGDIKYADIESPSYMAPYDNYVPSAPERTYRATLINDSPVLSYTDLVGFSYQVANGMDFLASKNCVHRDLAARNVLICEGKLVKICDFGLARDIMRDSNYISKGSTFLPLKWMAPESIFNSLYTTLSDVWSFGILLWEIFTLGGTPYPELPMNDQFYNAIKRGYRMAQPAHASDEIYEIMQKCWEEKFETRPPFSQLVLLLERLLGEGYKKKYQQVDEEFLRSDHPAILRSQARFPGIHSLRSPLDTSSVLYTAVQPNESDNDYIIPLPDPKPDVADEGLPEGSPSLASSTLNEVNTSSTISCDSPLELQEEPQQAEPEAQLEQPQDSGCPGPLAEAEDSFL
Experimental: FIG. 5. Phosphorylation of ERK following treatment of C2C12 Cells with PDGF and JC5. Western blots for total (ERK) and phosphorylated ERK (pERK) at 42 and 44 kDa show an increase in phosphorylation following treatment with 10 ng/ml PDGF−BB and 1 μg/ml of JC5. FIG. 6. Phosphorylation of ERK following treatment of C2C12 Cells with PDGF and JC5a. Western blots for total (ERK) and phosphorylated ERK (pERK) at 42 and 44 kDa show an increase in phosphorylation 10 minutes post treatment with 10 ng/ml PDGF−BB and 1 μg/ml of novel mimetic peptide JC5a. JC5a maintained this increased phosphorylation of ERK at 30 minutes post treatment. PDGF receptor activation takes place via autophosphorylation of tyrosine […] residues at key sites throughout the intracellular domain. Autophosphorylation engages different signaling pathways, including ERK (MAPK) which participates in proliferation, cell survival, angiogenesis, and chemotactic activity of cells. Phosphorylation of ERK indicates successful activation of the PDGF receptor.

[4] = test system: primary human coronary artery endothelial cells (HCAECs); assay: Vascular tube forming assay on Geltrex; conditions: 24 hours
Experimental: FIG. 4. Tube formation of Human Coronary Artery Endothelial Cells Treated with PDGF and PDGF Mimetic Peptide JC5. Human coronary artery endothelial cells treated with 50 ng/ml of PDGF−AB and PDGF−BB produced longer tubes than untreated cells and cells treated with the PDGF receptor inhibitor AG1296+PDGF−AB. […] Error bars represent ±SD, n=3/group.
PDGF has a well-established role in angiogenesis in vivo. To simulate this function in vitro a vascular tube forming assay on primary human coronary artery endothelial cells (HCAECs) was carried out. Cells were seeded on top of 3D growth factor reduced Geltrex basement membrane extract and incubated for 24 hours following treatment with the PDGF−AB, PDGF-BB, no treatment control, AG1296+PDGF−AB negative control, and peptides JC5 and JC5a. Over the course of 24 hours the cells form tubes throughout the gel. PDGF is reported to facilitate tube formation of endothelial cells in in vitro 3D assays.
Cells treated with 50 ng/ml of PDGF−AB, PDGF-BB, and 5 μg/ml of JC5 produced longer more uniform tubes than untreated cells and cells treated with the negative control 10 μM PDGF receptor inhibitor AG1296 co-treated with 50 ng/ml PDGF−AB (FIG. 4). The positive controls PDGF−AB and PDGF−BB produced tubes that were 560.7 μm (±53.93) and 616.3 μm (±39.07), respectively. […] The no treatment control and AG1296+PDGF−AB negative control produced tubes that were 305 μm and 307.7 μm, respectively. […] In summary, JC5 has similar vascular tube forming ability to recombinant human PDGF−AB and PDGF-BB.

Compound | effect of AG1296 co-treatment on PDGF−BB-stimulated EdU uptake [1] | collagen gel contracted to % of its initial surface area (C2C12 mouse myoblasts [2]; 24-hour incubation, 10 ng/ml PDGF, 1 μg/ml peptides, 10 μM AG1296, mean (±SD)) [%] | difference in collagen gel area versus negative control AG1296 co-treated with PDGF−AB (Mean Diff.) (C2C12 mouse myoblasts [2]; 24 hours, vs negative control (55.25%)) [%] | difference in collagen gel area versus no treatment control (Mean Diff.) (C2C12 mouse myoblasts [2]; 24 hours, vs no treatment control (41.27%)) [%] | migration of cells across the scratch (C2C12 mouse myoblasts [3]; 24 hours at 37° C., 10 ng/ml PDGF, 1 μg/ml peptides, mean (±SD)) [%] | increase in migration compared to the negative control (Mean Diff) (C2C12 mouse myoblasts [3]; 24 hours, vs AG1296+PDGF−AB negative control) [%] | increase in migration compared to the no treatment control (Mean Diff.) (C2C12 mouse myoblasts [3]; 24 hours, vs no treatment control) [%] | phosphorylation of ERK (pERK) (PDGF receptor) | tube length ([4]; 50 ng/ml PDGF, 5 μg/ml JC5, 10 μM AG1296, mean (±SD)) [μm] | increased tube length compared to the negative control (Mean Diff.) ([4]; vs AG1296+PDGF−AB (307.7 μm)) [μm] | increased tube length compared to the no treatment control (Mean Diff.) ([4]; vs no treatment control (305 μm)) [μm]
COc1cc2ncc(-c3ccccc3)nc2cc1OC [AG1296, reference compound] | significantly inhibited |  |  |  |  |  |  |  |  |  | 
PDGF−BB: recombinant human PDGF-BB protein ligand, positive control |  | 23.42 | 31.83 | 17.86 | 75.02 | 58.45 | 54.70 | phosphorylation of ERK (pERK) can be seen | 616.3 | 308.7 | 311.3
